For 28 molecules, melting point results are on record in patent publication US7078522B2, “Pyridopyrimidine or naphthyridine derivative” (Tanabe Seiyaku Co., Ltd., priority 2001, dated 2006).

As a reminder, the melting point is the temperature of the solid-liquid transition.

As to `Cn1c(=O)ccc2cnc(N3CCC[C@H]3CO)nc21` [Example 3, (S)-2-(2-Hydroxymethyl-1-pyrrolidinyl)-8-N-mehyl-7,8-dihydro-7-oxo-pyrido[2,3-d]pyrimidine], the melting point is 143 to 144 °C.
In turn, `COc1ccc(Cn2c(=O)ccc3cnc(N4CCc5cncnc5C4)nc32)cc1Cl` [Example 29] yielded a melting point of 200 to 201 °C.
Turning to `COc1ccc(Cn2c(=O)ccc3cnc(N4CCC[C@H]4CO)nc32)cc1Cl` [Example 1, (S)-2-(2-Hydroxymethyl-1-pyrrolidinyl)-8-(3-chloro-4-methoxybenzyl)-7,8-dihydro-7-oxo-pyrido[2,3-d]pyrimidine], the melting point lay in the range of 142 to 143 °C.
For `COc1ccc(Cn2c(=O)ccc3cnc(N4CCC[C@H]4CO)nc32)cc1` [Example 16] the value was 135 to 136 °C; for `COc1ccc(Cn2c(=O)c(C(=O)O)cc3cnc(N4CCC[C@H]4CO)nc32)cc1Cl` [Example 33], 258 to 264 °C; for `COc1ccc(Cn2c(=O)ccc3cnc(N4CCC[C@H]4CO)nc32)cc1OC` [Example 17], 132 °C.
Take `COc1ccc(Cn2c(=O)ccc3cnc(N4CCNCC4)nc32)cc1Cl` [Example 28]: the melting point fell in the range of 169.5 to 170 °C.
`COc1ccc(Cn2c(=O)ccc3cnc(N4CCC[C@@H]4CO)nc32)cc1Cl` [Example 26] had a melting point of 139 to 141 °C.
For `O=c1ccc2cnc(N3CCC[C@H]3CO)nc2n1Cc1ccc2c(c1)OCO2` [Example 18] the value was 154 to 155 °C; for `COc1ccc(Cn2c(=O)ccc3cnc(NCc4ncccn4)nc32)cc1Cl` [Example 25], 172 to 173 °C; for `COc1ccc(Cn2c(=O)ccc3cnc(OCc4ccccn4)nc32)cc1Cl` [Example 2, 2-(2-Pyridylmethoxy)-8-(3-chloro-4-methoxybenzyl)-7,8-dihyro-7-oxo-pyrido[2,3-d]pyrimidine], 130 to 131 °C.
For `CN(C)CCn1c(=O)ccc2cnc(N3CCC[C@H]3CO)nc21` [Example 21] the value was 102 to 104 °C; for `COc1ccc(Cn2c(=O)ccc3cnc(N4CCc5ccccc5C4)nc32)cc1Cl` [Example 23], 167 to 168 °C.
For `COc1ccc(Cn2c(=O)ccc3ccc(N4CCC[C@H]4CO)nc32)cc1Cl` [Example 10, (S)-2-(2-Hydroxymethyl-1-pyrrolidinyl)-8-(3-chloro-4-methoxybenzyl)-7,8-dihydro-7-oxo-1,8-naphthyridine] the value was 131 to 134 °C; for `O=c1ccc2cnc(N3CCC[C@H]3CO)nc2[nH]1` [Example 15], 99 to 103 °C.
In turn, `CNC(=O)c1cc2cnc(N3CCC[C@H]3CO)nc2n(Cc2ccc(OC)c(Cl)c2)c1=O` returned a melting point of 191 to 191.5 °C.
Regarding `COc1ccc(Cn2c(=O)c(C(=O)NCCO)cc3cnc(N4CCC[C@H]4CO)nc32)cc1Cl`, the melting point was in the range of 207 to 210 °C.
Regarding `COc1ccc(Cn2c(=O)ccc3cnc(SC)nc32)cc1Cl` [Example 24], the melting point was 189 to 190 °C.
As to `COc1ccc(Cn2c(=O)ccc3cnc(N4CCn5ccnc5C4)nc32)cc1Cl` [Example 32], the melting point was 158 to 159 °C.
With `COc1ccc(Cn2c(=O)c(C(=O)NCc3ncccn3)cc3cnc(N4CCC[C@H]4CO)nc32)cc1Cl`, the melting point was in the range of 216 to 218 °C.
For `COC(=O)c1cc2cnc(N3CCCCC3)nc2n(Cc2ccc(OC)c(Cl)c2)c1=O` [Example 22] the value was 201 to 203 °C; for `COc1ccc(Cn2c(=O)ccc3cnc(N)nc32)cc1Cl` [Example 31], 234 to 242 °C; for `COC(=O)c1cc2cnc(N3CCC[C@H]3CO)nc2n(Cc2ccccn2)c1=O` [Example 42], 199 to 201 °C.
For `COC(=O)c1c(-c2nccn2C)c2cnc(N3CCC[C@H]3CO)nc2n(Cc2ccc(OC)c(Cl)c2)c1=O` [Example 13, (S)-2-(2-Hydroxymethyl-1-pyrrolidinyl)-5-(1-methyl-2-imidazolyl)-6-methoxycarbonyl-8-(3-chloro-4-methoxybenzyl)-7,8-dihydro-7-oxo-pyrido[2,3-d]pyrimidine] the value was 142 to 145 °C; for `O=c1ccc2cnc(N3CCC[C@H]3CO)nc2n1Cc1ncccn1` [Example 19], 150 to 151 °C; for `O=c1ccc2cnc(N3CCC[C@H]3CO)nc2n1Cc1ccncc1` [Example 20], 143 to 144 °C.
For `COc1ccc(Cn2c(=O)ccc3cnc(N4CCOC(CO)C4)nc32)cc1Cl` (stereo not shown) [Example 27] the value was 207 to 209 °C; for `COc1ccc(Cn2c(=O)cc(-c3ccccn3)c3cnc(N4CCC[C@H]4CO)nc32)cc1Cl` [Example 12, (S)-2-(2-Hydroxymethyl-1-pyrrolidinyl)-5-(2-pyridyl)-8-(3-chloro-4-methoxybenzyl)-7,8-dihydro-7-oxo-pyrido[2,3-d]pyrimidine], 183.5 to 186.5 °C.
